Reference: patent US8822517B2, “Arylosulfonamides for the treatment of CNS diseases” (Adamed SP. Z O.O., priority 2010, dated 2014)

Legend:
[1] = target: histaminergic H1 receptor (Homo sapiens, UniProt P35367); assay: Binding assay H1 (h), [3H]pyrilamine, HEK-293 cells; parameters: expressed in transfected cells; host or cells: HEK-293 cells; conditions: read-out: H1 [%]
Summary of the method: (§1)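 Binding read by scintillation counting. Non-specific component defined by excess unlabelled ligand and removed from total counts. Compounds at 1×10^−6 M.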

[2] = target: T1, muscarinic M3 receptor (Homo sapiens, UniProt P20309); assay: Binding assay M3 (h), [3H]4-DAMP, CHO cells; conditions: read-out: M3 [%]
T1 construct: expressed in transfected cells; host or cells: CHO cells
Summary of the method: as §1

[3] = target: T2, adrenergic α2C receptor (Homo sapiens, UniProt P18825); assay: Binding assay α2C (h), [3H]RX 821002, CHO cells; parameters: expressed in transfected cells; host or cells: CHO cells; conditions: read-out: α2C [%]
T2 sequence (P18825 1-462): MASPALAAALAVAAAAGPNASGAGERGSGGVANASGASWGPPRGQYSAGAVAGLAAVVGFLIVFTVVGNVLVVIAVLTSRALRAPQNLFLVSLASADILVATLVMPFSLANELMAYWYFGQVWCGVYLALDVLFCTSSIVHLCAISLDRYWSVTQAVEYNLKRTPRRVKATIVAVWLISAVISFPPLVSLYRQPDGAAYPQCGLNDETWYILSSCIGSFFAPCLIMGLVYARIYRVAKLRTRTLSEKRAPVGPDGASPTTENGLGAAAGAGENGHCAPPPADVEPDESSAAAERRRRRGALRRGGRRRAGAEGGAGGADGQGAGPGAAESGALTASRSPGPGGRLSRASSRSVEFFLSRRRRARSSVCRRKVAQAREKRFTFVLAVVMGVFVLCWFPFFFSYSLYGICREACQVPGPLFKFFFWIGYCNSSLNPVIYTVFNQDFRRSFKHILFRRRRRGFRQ
Summary of the method: as §1

[4] = target: serotoninergic 5-HT2A receptor (Homo sapiens, UniProt P28223); assay: Cellular functional assay, serotoninergic 5-HT2A receptor (agonism/antagonism); format: cell-based; conditions: for activation at 1 µM: read-out: 5-HT2A -ag [%]; for inhibition at 1 µM: read-out: 5-HT2A -antag [%]
Summary of the method: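 Human receptors tested in cell-based functional format for both agonist and antagonist modes. Single compound concentration of 1×10^−6M.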

[5] = target: T3, dopaminergic D3 receptor (Homo sapiens, UniProt P35462); assay: Binding assay D3 (h), [3H]methyl-spiperone, CHO cells; parameters: expressed in transfected cells; host or cells: CHO cells; conditions: read-out: D3 [%]
Summary of the method: as §1

[6] = target: T3, dopaminergic D3 receptor; assay: Cellular functional assay, dopaminergic D3 receptor (agonism/antagonism); format: cell-based; conditions: for inhibition at 1 µM: CHO, read-out: D3-antag. [%]; for activation at 1 µM: agonist effect, percent of control specific agonist response (300 nM dopamine for control), 1×10^−6 M, D3 (h), CHO cells, read-out: D3-ag [%]
Method: (§2) The compounds were tested at the concentration of 1×10^−6M.
(§3) In the Tables ag refers to agonism, and antag to antagonism).

[7] = target: serotoninergic 5-HT7 receptor (Homo sapiens, UniProt P34969); assay: Binding assay 5-HT7 (h), [3H]LSD, CHO cells; parameters: expressed in transfected cells; host or cells: CHO cells; conditions: read-out: 5-HT7
Summary of the method: as §1

[8] = target: T2, adrenergic α2C receptor; assay: Cellular functional assay, adrenergic α2C receptor (agonism/antagonism); format: cell-based; conditions: for activation at 1 µM: agonist effect, percent of control specific agonist response, compounds tested at 1×10^−6M, read-out: α2C −ag [%]; for inhibition at 1 µM: read-out: α2C −antag. [%]
Method: as §2, §3

[9] = target: T4, serotoninergic 5-HT6 receptor (Homo sapiens, UniProt P50406); assay: Cellular functional assay, serotoninergic 5-HT6 receptor (agonism/antagonism); format: cell-based; conditions: for activation at 1 µM: agonist effect, percent of control specific agonist response, compounds tested at 1×10^−6M, read-out: 5-HT6-ag [%]; for inhibition at 1 µM: read-out: 5-HT6-antag. [%]
Method: as §2, §3

[10] = target: hERG potassium channels (Homo sapiens, UniProt Q12809); assay: hERG potassium channel block, electrophysiology (IonWorks Quattro), CHO cells; conditions: % block of hERG current, cloned hERG channels in CHO cells, IonWorks Quattro
Method: Ability to block hERG potassium channels was determined using the electrophysiological method and cloned hERG potassium channels (KCNH2 gene, expressed in CHO cells) as biological material. The effects were evaluated using IonWorks™ Quattro system (MDS-AT).
hERG current was elicited using a pulse pattern with fixed amplitudes (conditioning prepulse: −80 mV for 25 ms; test pulse: +40 mV for 80 ms) from a holding potential of 0 mV. hERG current was measured as a difference between the peak current at 1 ms after the test step to +40 mV and the steady-state current at the end of the step to +40 mV.
Data acquisition and analyses was performed using the IonWorks Quattro™ system operation software (version 2.0.2; Molecular Devices Corporation, Union City, Calif.). Data were corrected for leak current.

[11] = target: T5, serotoninergic receptor 5-HT2C (Homo sapiens, UniProt P28335); assay: Binding assay 5-HT2C (h), [3H]mesulergine, HEK-293 cells; conditions: read-out: 5-HT2C [%]
T5 construct: expressed in transfected cells; host or cells: HEK-293 cells
T5 sequence (P28335 33-458): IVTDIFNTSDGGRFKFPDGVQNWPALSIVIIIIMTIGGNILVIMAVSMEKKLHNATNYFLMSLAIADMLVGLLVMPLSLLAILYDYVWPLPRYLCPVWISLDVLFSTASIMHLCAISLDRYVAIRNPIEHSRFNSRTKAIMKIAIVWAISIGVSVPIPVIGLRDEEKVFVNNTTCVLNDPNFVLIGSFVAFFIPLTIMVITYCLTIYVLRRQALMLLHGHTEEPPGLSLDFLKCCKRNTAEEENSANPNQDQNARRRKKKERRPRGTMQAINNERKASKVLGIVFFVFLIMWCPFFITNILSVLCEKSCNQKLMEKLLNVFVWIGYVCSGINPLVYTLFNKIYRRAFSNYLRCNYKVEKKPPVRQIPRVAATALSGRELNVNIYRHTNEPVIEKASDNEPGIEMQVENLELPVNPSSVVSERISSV
Summary of the method: as §1

[12] = target: T4, serotoninergic 5-HT6 receptor; assay: Binding assay 5-HT6 (h), [3H]LSD, CHO cells; parameters: expressed in transfected cells; host or cells: CHO cells; conditions: read-out: 5-HT6
Summary of the method: as §1

T3 sequence (P35462 whole entry): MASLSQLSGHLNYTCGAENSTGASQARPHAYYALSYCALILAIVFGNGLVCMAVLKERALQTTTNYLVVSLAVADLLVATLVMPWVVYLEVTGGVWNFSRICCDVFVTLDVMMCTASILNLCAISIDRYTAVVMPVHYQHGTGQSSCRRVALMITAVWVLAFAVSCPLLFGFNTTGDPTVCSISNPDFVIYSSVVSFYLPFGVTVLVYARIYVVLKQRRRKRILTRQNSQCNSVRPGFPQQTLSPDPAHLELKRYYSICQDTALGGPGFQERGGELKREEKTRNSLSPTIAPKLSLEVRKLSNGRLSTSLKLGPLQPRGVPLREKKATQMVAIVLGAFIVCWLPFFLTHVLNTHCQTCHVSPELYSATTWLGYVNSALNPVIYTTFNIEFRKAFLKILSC
T4 sequence (P50406 whole entry): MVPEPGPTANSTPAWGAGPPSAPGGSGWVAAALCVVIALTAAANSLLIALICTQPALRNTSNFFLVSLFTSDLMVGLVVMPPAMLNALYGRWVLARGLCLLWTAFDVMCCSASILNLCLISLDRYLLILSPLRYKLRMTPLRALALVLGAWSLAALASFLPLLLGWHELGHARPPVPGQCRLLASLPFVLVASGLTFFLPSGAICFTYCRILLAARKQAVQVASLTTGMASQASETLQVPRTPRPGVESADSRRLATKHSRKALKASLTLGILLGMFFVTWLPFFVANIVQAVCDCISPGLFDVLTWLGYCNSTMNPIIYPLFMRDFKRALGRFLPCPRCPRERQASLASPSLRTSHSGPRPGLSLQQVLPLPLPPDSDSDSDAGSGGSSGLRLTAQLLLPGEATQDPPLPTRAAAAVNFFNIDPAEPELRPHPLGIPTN
Chain of serotoninergic 5-HT2A receptor (P28223 whole entry): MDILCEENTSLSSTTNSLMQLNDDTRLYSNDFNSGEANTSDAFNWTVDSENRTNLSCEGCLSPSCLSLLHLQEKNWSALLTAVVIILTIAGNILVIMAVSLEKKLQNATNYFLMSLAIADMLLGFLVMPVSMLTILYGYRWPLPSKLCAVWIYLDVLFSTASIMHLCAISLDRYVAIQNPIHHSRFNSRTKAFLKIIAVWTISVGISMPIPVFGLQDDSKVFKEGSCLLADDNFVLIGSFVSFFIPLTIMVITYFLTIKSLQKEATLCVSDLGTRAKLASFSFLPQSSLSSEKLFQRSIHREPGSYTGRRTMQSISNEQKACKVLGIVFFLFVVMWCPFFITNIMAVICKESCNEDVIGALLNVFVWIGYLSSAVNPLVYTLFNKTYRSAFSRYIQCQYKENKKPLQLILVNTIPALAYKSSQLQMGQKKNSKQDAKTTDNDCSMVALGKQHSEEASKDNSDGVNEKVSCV
Chain of histaminergic H1 receptor (P35367 whole entry): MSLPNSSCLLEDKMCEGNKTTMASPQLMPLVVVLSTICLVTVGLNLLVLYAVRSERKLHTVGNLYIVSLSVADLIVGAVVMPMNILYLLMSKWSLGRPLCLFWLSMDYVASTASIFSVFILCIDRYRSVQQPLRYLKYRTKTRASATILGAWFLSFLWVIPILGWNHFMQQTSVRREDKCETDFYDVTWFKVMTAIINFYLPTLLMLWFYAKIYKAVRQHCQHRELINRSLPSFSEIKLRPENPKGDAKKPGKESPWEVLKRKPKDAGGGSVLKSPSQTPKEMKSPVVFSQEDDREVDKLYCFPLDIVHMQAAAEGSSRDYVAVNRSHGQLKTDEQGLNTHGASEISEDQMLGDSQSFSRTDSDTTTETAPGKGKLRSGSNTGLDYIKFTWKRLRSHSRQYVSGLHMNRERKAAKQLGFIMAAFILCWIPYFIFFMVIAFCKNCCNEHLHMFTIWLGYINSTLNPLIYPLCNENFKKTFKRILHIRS
T1 sequence (P20309 whole entry): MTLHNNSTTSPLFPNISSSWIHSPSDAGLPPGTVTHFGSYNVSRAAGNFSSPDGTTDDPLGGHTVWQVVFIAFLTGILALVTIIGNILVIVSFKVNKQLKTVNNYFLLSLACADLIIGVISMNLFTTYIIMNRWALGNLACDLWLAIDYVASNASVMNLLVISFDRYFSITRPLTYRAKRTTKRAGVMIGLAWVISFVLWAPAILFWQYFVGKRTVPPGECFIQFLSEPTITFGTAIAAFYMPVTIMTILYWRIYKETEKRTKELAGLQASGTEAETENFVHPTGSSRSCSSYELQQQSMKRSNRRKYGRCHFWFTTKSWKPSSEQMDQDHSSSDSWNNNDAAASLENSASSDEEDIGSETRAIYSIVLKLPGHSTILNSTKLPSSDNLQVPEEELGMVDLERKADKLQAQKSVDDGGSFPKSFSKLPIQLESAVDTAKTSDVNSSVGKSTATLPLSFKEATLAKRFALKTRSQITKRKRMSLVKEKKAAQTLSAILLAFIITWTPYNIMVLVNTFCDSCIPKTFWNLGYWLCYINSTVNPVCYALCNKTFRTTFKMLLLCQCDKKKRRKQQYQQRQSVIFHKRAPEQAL
Chain of serotoninergic 5-HT7 receptor (P34969 whole entry): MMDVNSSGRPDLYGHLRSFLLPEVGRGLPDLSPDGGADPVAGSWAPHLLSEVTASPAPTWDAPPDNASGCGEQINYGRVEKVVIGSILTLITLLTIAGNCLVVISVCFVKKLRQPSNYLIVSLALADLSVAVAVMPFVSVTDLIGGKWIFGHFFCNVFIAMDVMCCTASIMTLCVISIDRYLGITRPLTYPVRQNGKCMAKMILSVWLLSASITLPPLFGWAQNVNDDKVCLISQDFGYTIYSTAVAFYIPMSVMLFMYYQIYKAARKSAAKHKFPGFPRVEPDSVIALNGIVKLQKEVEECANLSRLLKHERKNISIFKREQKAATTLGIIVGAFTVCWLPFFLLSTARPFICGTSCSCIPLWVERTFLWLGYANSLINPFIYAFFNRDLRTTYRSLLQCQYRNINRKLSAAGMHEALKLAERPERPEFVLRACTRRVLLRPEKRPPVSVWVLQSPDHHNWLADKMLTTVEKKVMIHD
Chain of hERG potassium channels (Q12809 whole entry): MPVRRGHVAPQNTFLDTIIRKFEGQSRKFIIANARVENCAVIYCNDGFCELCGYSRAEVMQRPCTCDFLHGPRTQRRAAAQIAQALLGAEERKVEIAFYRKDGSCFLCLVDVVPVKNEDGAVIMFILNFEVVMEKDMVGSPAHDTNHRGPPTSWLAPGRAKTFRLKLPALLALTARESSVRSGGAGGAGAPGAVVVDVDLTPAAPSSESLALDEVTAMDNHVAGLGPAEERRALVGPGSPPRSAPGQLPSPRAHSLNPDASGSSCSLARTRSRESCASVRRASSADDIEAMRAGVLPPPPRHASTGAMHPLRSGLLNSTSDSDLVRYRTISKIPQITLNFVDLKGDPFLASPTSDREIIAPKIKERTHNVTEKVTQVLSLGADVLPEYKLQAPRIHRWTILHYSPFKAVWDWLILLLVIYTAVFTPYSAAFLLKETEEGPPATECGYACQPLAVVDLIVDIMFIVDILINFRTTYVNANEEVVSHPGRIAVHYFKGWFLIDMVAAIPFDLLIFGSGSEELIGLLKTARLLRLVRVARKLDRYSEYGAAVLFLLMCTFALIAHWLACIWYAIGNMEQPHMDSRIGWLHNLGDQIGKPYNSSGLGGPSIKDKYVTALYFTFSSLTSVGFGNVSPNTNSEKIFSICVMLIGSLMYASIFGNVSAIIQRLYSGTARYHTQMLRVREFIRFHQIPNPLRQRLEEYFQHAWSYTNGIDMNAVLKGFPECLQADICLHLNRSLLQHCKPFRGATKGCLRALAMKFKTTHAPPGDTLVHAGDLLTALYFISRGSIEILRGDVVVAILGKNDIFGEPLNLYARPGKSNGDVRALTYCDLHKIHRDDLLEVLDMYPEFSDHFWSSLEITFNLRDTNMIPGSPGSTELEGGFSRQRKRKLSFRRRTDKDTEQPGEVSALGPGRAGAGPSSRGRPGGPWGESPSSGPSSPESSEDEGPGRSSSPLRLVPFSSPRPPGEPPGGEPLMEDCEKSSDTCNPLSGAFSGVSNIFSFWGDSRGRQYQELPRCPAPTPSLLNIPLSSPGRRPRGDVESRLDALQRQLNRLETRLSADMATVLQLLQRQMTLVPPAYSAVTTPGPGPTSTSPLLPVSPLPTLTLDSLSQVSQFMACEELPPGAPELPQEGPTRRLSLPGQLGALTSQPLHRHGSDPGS

## O=S(=O)(NCCCN1CCC(c2noc3cc(F)ccc23)CC1)c1ccc(F)c(Cl)c1 [Compound 331, 3-Chloro-4-fluoro-N-[3-[4-(6-fluoro-1,2-benzoxazol-3-yl)piperidin-1-yl]propyl]benzenesulphonamide]
[1]
  inhibition at 1 µM: 97%
[2]
  inhibition at 1 µM: 10%
[3]
  inhibition at 1 µM: 104%
[4]
  activation at 1 µM: -1%
  inhibition at 1 µM: 98%
[5]
  inhibition at 1 µM: 100%
[6]
  inhibition at 1 µM: 114%
  activation at 1 µM: -15%
[7]
  inhibition at 1 µM: 99%
[8]
  activation at 1 µM: -14%
  inhibition at 1 µM: 7%
[9]
  activation at 1 µM: -1%
  inhibition at 1 µM: 98%
[10]
  hERG [%]: 32%
[11]
  inhibition at 1 µM: 82%
[12]
  inhibition at 1 µM: 97%

## N#Cc1cccc(S(=O)(=O)NCCCN2CCC(c3noc4cc(F)ccc34)CC2)c1 [Compound 338, 3-cyano-N-[3-[4-(6-fluoro-1,2-benzoxazol-3-yl)piperidin-1-yl]propyl]benzenesulphonamide]
[1]
  inhibition at 1 µM: 95%
[2]
  inhibition at 1 µM: 1%
[3]
  inhibition at 1 µM: 104%
[4]
  activation at 1 µM: -1%
  inhibition at 1 µM: 100%
[5]
  inhibition at 1 µM: 100%
[6]
  inhibition at 1 µM: 109%
  activation at 1 µM: -10%
[7]
  inhibition at 1 µM: 98%
[8]
  activation at 1 µM: -3%
  inhibition at 1 µM: 9%
[9]
  activation at 1 µM: 0%
  inhibition at 1 µM: 88%
[10]
  hERG [%]: 40.5%
[11]
  inhibition at 1 µM: 76%
[12]
  inhibition at 1 µM: 94%
